Assay results published in the supplement of paper PMC10627819.

Tests used:
B. subtilis 168 [1] = assay: fitness (endpoint OD595 vs no drug) (fraction); higher = more growth
Outline: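 With the first reading as background, OD595 was measured every 30 min for 14 h in 384-well plates kept at 37 °C and inoculated at OD595 0.01. TSB, LB Lennox or CY was the medium. Fitness is the optical density at the transition into stationary phase divided by the robust mean of no-drug control wells, with a cap of 1.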

B. subtilis 168 [2] = assay: Bliss interaction score (quartile over a dose matrix) (fitness difference); higher = more antagonism (negative = synergy)
Outline: (§1)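 Each OD595 reading at entry into stationary phase was scaled to the robust mean of the untreated wells on its plate, with a ceiling of 1. These ratios define fitness, and single-drug fitness was inferred from combinations. The Bliss score compares observed fitness with the product-based expectation and is reported as quartiles across all replicate types, technical, biological and donor/recipient.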

S. aureus DSM 20231 = assay: as above
Outline: as §1

S. aureus Newman = assay: as above
Outline: as §1

S. pneumoniae D39V = assay: as above
Outline: as §1
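Wherever Bliss interaction score (quartile over a dose matrix) is given: first quartile when negative (synergy) and third quartile when positive (antagonism).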
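Wherever fitness (endpoint OD595 vs no drug) is given: OD595 on entry to stationary phase over no-drug wells; at most 1.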

CO/N=C(\C(=O)N[C@@H]1C(=O)N2C(C(=O)O)=C(COC(N)=O)CS[C@H]12)c1ccco1 [Cefuroxime] + CO[C@@H]1[C@@H](OC(N)=O)[C@@H](O)[C@H](Oc2ccc3c(O)c(NC(=O)c4ccc(O)c(CC=C(C)C)c4)c(=O)oc3c2C)OC1(C)C [Novobiocin]
B. subtilis 168 [1], one replicate
Conditions	fitness
first compound 0.04875 µg/mL, partner 0.0125 µg/mL	≥ 1
first compound 0.04875 µg/mL, partner 0.025 µg/mL	0.997
first compound 0.04875 µg/mL, partner 0.1 µg/mL	0.563
first compound 0.04875 µg/mL, partner 0.2 µg/mL	0.528
first compound 0.0975 µg/mL, partner 0.0125 µg/mL	0.824
first compound 0.0975 µg/mL, partner 0.025 µg/mL	0.893
first compound 0.0975 µg/mL, partner 0.1 µg/mL	0.483
first compound 0.0975 µg/mL, partner 0.2 µg/mL	0.429
first compound 0.195 µg/mL, partner 0.0125 µg/mL	0.756
first compound 0.195 µg/mL, partner 0.025 µg/mL	0.76
first compound 0.195 µg/mL, partner 0.1 µg/mL	0.36
first compound 0.195 µg/mL, partner 0.125 µg/mL	0.133
first compound 0.195 µg/mL, partner 0.2 µg/mL	0.335
first compound 0.195 µg/mL, partner 0.25 µg/mL	0.108
first compound 0.195 µg/mL, partner 0.5 µg/mL	0.017
first compound 0.39 µg/mL, partner 0.125 µg/mL	0.116
first compound 0.39 µg/mL, partner 0.25 µg/mL	0.0783
first compound 0.39 µg/mL, partner 0.5 µg/mL	0
first compound 0.78 µg/mL, partner 0.125 µg/mL	0.0821
first compound 0.78 µg/mL, partner 0.25 µg/mL	0.0334
first compound 0.78 µg/mL, partner 0.5 µg/mL	0.0061
first compound 1.562 µg/mL, partner 0.0125 µg/mL	0.318
first compound 1.562 µg/mL, partner 0.025 µg/mL	0.274
first compound 1.562 µg/mL, partner 0.05 µg/mL	0.263
first compound 3.125 µg/mL, partner 0.0125 µg/mL	0.264
first compound 3.125 µg/mL, partner 0.025 µg/mL	0.23
first compound 3.125 µg/mL, partner 0.05 µg/mL	0.189
first compound 6.25 µg/mL, partner 0.0125 µg/mL	0.249
first compound 6.25 µg/mL, partner 0.025 µg/mL	0.178
first compound 6.25 µg/mL, partner 0.05 µg/mL	0.159

B. subtilis 168 [1], partner 0.05 µg/mL
Conditions	fitness
first compound 0.0975 µg/mL	0.665
first compound 0.195 µg/mL	0.555

Conditions	Bliss interaction score
B. subtilis 168 [2]	-0.0729
S. aureus DSM 20231	0.119
S. aureus Newman	-0.131
S. pneumoniae D39V	0.0773

CO/N=C(\C(=O)N[C@@H]1C(=O)N2C(C(=O)O)=C(COC(N)=O)CS[C@H]12)c1ccco1 [Cefuroxime] + COc1cc(Cc2cnc(N)nc2N)cc(OC)c1OC [Trimethoprim]
fitness, B. subtilis 168 [1], one replicate
Conditions	partner 0.1 µg/mL	partner 0.125 µg/mL	partner 0.2 µg/mL	partner 0.25 µg/mL	partner 0.4 µg/mL	partner 1 µg/mL	partner 2 µg/mL
first compound 0.04875 µg/mL	–	0.392	–	0.382	–	0.37	0.375
first compound 0.0975 µg/mL	–	0.443	–	0.46	–	0.315	0.247
first compound 0.195 µg/mL	0.325	–	0.259	–	0.115	0.279	0.147
first compound 0.39 µg/mL	0.162	0.227	0.262	–	0.207	–	–
first compound 0.78 µg/mL	0.237	0.155	0.221	–	0.17	–	–

fitness, B. subtilis 168 [1]
Conditions	first compound 0.04875 µg/mL	first compound 0.0975 µg/mL	first compound 0.195 µg/mL	first compound 0.39 µg/mL	first compound 0.78 µg/mL	first compound 1.562 µg/mL	first compound 3.125 µg/mL	first compound 6.25 µg/mL
partner 0.125 µg/mL	–	–	0.289	–	–	–	–	–
partner 0.25 µg/mL	–	–	0.315	0.187	0.178	–	–	–
partner 0.5 µg/mL	0.397	0.407	0.29	0.19	0.168	0.286	0.26	0.255

Conditions	Bliss interaction score
B. subtilis 168 [2]	0.098
S. aureus DSM 20231	-0.188
S. aureus Newman	-0.438
S. pneumoniae D39V	-0.0241

CO/N=C(\C(=O)N[C@@H]1C(=O)N2C(C(=O)O)=C(COC(N)=O)CS[C@H]12)c1ccco1 [Cefuroxime] + C[C@H]1COc2c(N3CCN(C)CC3)c(F)cc3c(=O)c(C(=O)O)cn1c23 [Levofloxacin]
fitness, B. subtilis 168 [1], one replicate
Conditions	first compound 0.04875 µg/mL	first compound 0.0975 µg/mL	first compound 0.195 µg/mL	first compound 0.39 µg/mL	first compound 0.78 µg/mL	first compound 1.562 µg/mL	first compound 3.125 µg/mL	first compound 6.25 µg/mL
partner 0.001 µg/mL	–	–	0.284	0.15	0.156	–	–	–
partner 0.002 µg/mL	0.503	0.466	–	0.146	0.112	–	–	–
partner 0.0039 µg/mL	0.498	0.456	–	0.127	0.0881	–	–	–
partner 0.0078 µg/mL	0.432	0.397	0.334	–	–	–	–	–
partner 0.0312 µg/mL	0.055	0.0225	0.0495	–	–	0.0432	0.0263	0.0208
partner 0.0625 µg/mL	0.0626	0.0281	0.0412	–	–	0.0291	0.027	0.0162
partner 0.125 µg/mL	0.0489	0.0206	0.0412	–	–	0.0267	0.0197	0.0093

B. subtilis 168 [1], first compound 0.195 µg/mL
Conditions	fitness
partner 0.002 µg/mL	0.291
partner 0.0039 µg/mL	0.267

Conditions	Bliss interaction score
B. subtilis 168 [2]	-0.0899
S. aureus DSM 20231	-0.22
S. aureus Newman	-0.146
S. pneumoniae D39V	0.0603

CO/N=C(\C(=O)N[C@@H]1C(=O)N2C(C(=O)O)=C(COC(N)=O)CS[C@H]12)c1ccco1 [Cefuroxime] + C[C@H]1c2cccc(O)c2C(=O)C2=C(O)[C@]3(O)C(=O)C(C(N)=O)=C(O)[C@@H](N(C)C)[C@@H]3[C@@H](O)[C@@H]21 [Doxycycline]
fitness, B. subtilis 168 [1]
Conditions	first compound 0.04875 µg/mL	first compound 0.0975 µg/mL	first compound 0.195 µg/mL
partner 0.02 µg/mL	0.663	0.603	0.514
partner 0.04 µg/mL	0.6	0.525	0.358
partner 0.08 µg/mL	0.174	0.14	0.12

fitness, B. subtilis 168 [1], one replicate
Conditions	first compound 0.39 µg/mL	first compound 0.78 µg/mL	first compound 1.562 µg/mL	first compound 3.125 µg/mL	first compound 6.25 µg/mL
partner 0.02 µg/mL	0.488	0.451	0.441	0.424	0.393
partner 0.04 µg/mL	0.313	0.298	0.239	0.148	0.0995
partner 0.08 µg/mL	0.236	0.225	0.0559	0.0405	0.0345

Conditions	Bliss interaction score
B. subtilis 168 [2]	0.105
S. aureus DSM 20231	-0.257
S. aureus Newman	-0.0377
S. pneumoniae D39V	0.0445
